Where two headings read alike, the source gives them in different places.
Columns and labels:
SF2 = assay: qPCR gene expression of alternative splicing factor SF2; assay type: cell-based, human; settings: for SF2 RNA expression: HCT116, 24 h, 100, 250, 500 nM, compared to 1
Experimental: (§1) HCT116 tumor cells were treated with each analogue at 20 times the G150 value (Table 12) for 4 hours and then cellular RNA was isolated and purified for qPCR. Primers were designed to evaluate intron retention or exon skipping, direct responses to splice modulator treatment. Genes evaluated included those involved in splicing regulation (SF3A1, SF3A3, SF3B1, SF3B2), apoptosis (MCL-1L), protein folding (DNAJB1), and cell cycle regulation (AURKA, PLK-1) relative to the unspliced control GAPDH. For alternative splicing regulator (SF2), primers were designed to evaluate gene expression, which changes in response splice modulator treatment for SF2 relative to the unspliced control GAPDH. (−) denotes untreated cells.
as §1, with “analogues” for “each analogue”, “100 nM (light grey), 250 nM (grey), or 500 nM (black)” for “20 times the G150 value (Table 12)”, “24 h” for “4 hours”, “(MCL-1L), and” for “(MCL-1L),”, “(DNAJB1),” for “(DNAJB1), and cell cycle regulation (AURKA, PLK-1)”, “(—)” for “(−)”
(§2) Next, we turned our efforts to explore the ability of these analogues to modulate splicing. […] We treated cells for 4 h so that we could evaluate early changes in splicing activity, and then cellular RNA was isolated and purified for analyses by qPCR (FIG. 14). Most importantly, none of the concentrations tested led to significant changes in cell viability, ensuring that changes in gene expression were not due to cell death.
(§3) For these studies, we evaluated the expression of genes involved in splicing regulation (SF3A1, SF3A3, SF3B1, SF3B2), apoptosis (MCL-1L), protein folding (DNAJB1), and cell cycle regulation (AURKA, PLK-1) relative to the unspliced control GAPDH. Primers were designed to evaluate intron retention or exon skipping, direct responses to splice modulator treatment. The master splicing regulator alternative splicing factor (SF2) was also evaluated, with the primers for this gene designed to evaluate overall gene expression, which changes in response to splice modulator treatment.
From this 4 h study (FIG. 14), a small set of analogs (1, 1b, 1g, 1d, 1e, 1i and 1j) were selected to evaluate if effects on splicing when presented for a longer 24 h period. […] Using identical procedures as that used for 4 h, HCT116 cells were treated with three concentrations (100 nM, 250 nM and 500 nM) of each analog for 24 h. […]

DNAJB1 = assay: qPCR splicing analysis, DNAJB1 intron retention; assay type: cell-based, human; settings: for DNAJB1 intron retention: HCT116, 24 h, 100, 250, 500 nM, compared to 1
Experimental: as §1
as §1, with “analogues” for “each analogue”, “100 nM (light grey), 250 nM (grey), or 500 nM (black)” for “20 times the G150 value (Table 12)”, “24 h” for “4 hours”, “(MCL-1L), and” for “(MCL-1L),”, “(DNAJB1),” for “(DNAJB1), and cell cycle regulation (AURKA, PLK-1)”, “(—)” for “(−)”
as §2, §3
From this 4 h study (FIG. 14), a small set of analogs (1, 1b, 1g, 1d, 1e, 1i and 1j) were selected to evaluate if effects on splicing when presented for a longer 24 h period. […] Using identical procedures as that used for 4 h, HCT116 cells were treated with three concentrations (100 nM, 250 nM and 500 nM) of each analog for 24 h. Multiple concentrations were used as a means to check further validate the use of the GI50 concentration in our prior study (FIG. 14). As before, none of the concentrations tested led to significant changes in cell viability over the 24-hour time window, ensuring that changes in gene expression were not due to cell death.
Cells were treated with 1 or 1a-1j in media (McCoy's 5a (Life Technologies) supplemented with 10% FBS, 2 mM L-glutamine, and 100 U mL^−1 of penicillin and 100 μg mL^−1 of streptomycin 0.5% DMSO) for 4 h or 24 h. Untreated cells were considered were used as negative control. Total RNA was isolated using mirVana miRNA isolation kit (Life Technologies). […]

[1] = in vivo; cited from earlier work
[2] = compared with C16-C17 isomers / pladienolides, cited from earlier work
SF3A3 = assay: qPCR splicing analysis, SF3A3 intron retention; assay type: cell-based, human; settings: HCT116, 24 h, 100, 250, 500 nM
Experimental: as §1
HCT116 tumor cells were treated with analogues at 100 nM (light grey), 250 nM (grey), or 500 nM (black) for 24 h and then cellular RNA was isolated and purified for qPCR. […] Genes evaluated included those involved in splicing regulation (SF3A1, SF3A3, SF3B1, SF3B2), apoptosis (MCL-1L), and protein folding (DNAJB1), relative to the unspliced control GAPDH. […]
For these studies, we evaluated the expression of genes involved in splicing regulation (SF3A1, SF3A3, SF3B1, SF3B2), apoptosis (MCL-1L), protein folding (DNAJB1), and cell cycle regulation (AURKA, PLK-1) relative to the unspliced control GAPDH. […]

AURKA = assay: qPCR splicing analysis, AURKA exon skipping / expression; assay type: cell-based, human; settings: HCT116, 24 h, 100, 250, 500 nM
Experimental: as §1
Next, we turned our efforts to explore the ability of these analogues to modulate splicing. […] We treated cells for 4 h so that we could evaluate early changes in splicing activity, and then cellular RNA was isolated and purified for analyses by qPCR (FIG. 14). […]
as §3, with “Primers were designed to evaluate intron retention or exon skipping, direct responses to splice modulator treatment.” left out, “treatment. […]” for “treatment.”
Cells were treated with 1 or 1a-1j in media (McCoy's 5a (Life Technologies) supplemented with 10% FBS, 2 mM L-glutamine, and 100 U mL^−1 of penicillin and 100 μg mL^−1 of streptomycin 0.5% DMSO) for 4 h or 24 h. […] The amount of unspliced RNA for different genes was determined using Power SYBR Green PCR master mix (Applied Biosystems) by qPCR using specific primers for each gene. qPCR using 2.5 μM of each primer was performed on 5 ng of the obtained cDNA. qPCR conditions were as follows: 95° C. for 10 min for one cycle, then 95° C. for 10 min for one cycle, then 95° C. for 30 s, 55° C. for 60 s, 72° C. for 60 s, for 40 cycles using the MXPro. […]

SMILES | SF2 RNA expression (SF2) | DNAJB1 intron retention (DNAJB1) | MTD [1] | stability (words) [2] | stability (words) ([2]; listed as 17S-FD-895) | down regulating the expression of SF2 RNA (SF2; HCT116, 4 h, 20 times GI50, qPCR) | DNAJB1 intron 2 retention (level of intron retention) (DNAJB1; HCT116, 4 h, 20 times GI50, qPCR relative to GAPDH) | SF3A3 intron retention (SF3A3) | AURKA expression (AURKA)
CC[C@H](OC)[C@@H](C)[C@H]1O[C@@H]1[C@@H](O)[C@H](C)/C=C/C=C(\C)[C@H]1OC(=O)C[C@H](O)CC[C@@](C)(O)[C@@H](OC(C)=O)/C=C/[C@@H]1C [Analog 1d, 17S-FD-895] | decreased effect at reducing | decreased level of intron retention | 4 mg/kg | increased stability | metabolically-improved |  |  |  | 
CC[C@H](OC)[C@@H](C)[C@H]1O[C@@H]1[C@@H](O)[C@H](C)/C=C/C=C(\C)[C@H]1OC(=O)C[C@@H](O)CC[C@@](C)(O)[C@@H](OC(C)=O)/C=C/[C@@H]1C [Analog 1g, 3S,17S-FD-895] | reduced ability to inhibit SF2 RNA expression | loss in intron retention |  |  |  | highest efficacy | highest level of intron retention | concentration dependent increase intron retention | altered the expression of AURKA comparable to 1
CC[C@@H](OC)[C@H](C)[C@H]1O[C@@H]1[C@@H](O)[C@H](C)/C=C/C=C(\C)[C@H]1OC(=O)C[C@H](O)CC[C@@](C)(O)[C@@H](OC(C)=O)/C=C/[C@@H]1C [Analog 1j, 17S,20S,21R-FD-895] |  |  |  |  |  |  |  |  | reducing the expression of AURKA at 500 nM

Source: patent US12172988B2, “Anticancer and antifungal splice modulators” (priority 2021, dated 2024)
